Converted amounts (≈) assume the structure as drawn. “And” between values parts separate entries of the source, which are not always exact repeats. Identical values can stand only once. Like-named read-outs stand apart in the source and are kept apart here.
Assays:
[1] = Pharmacokinetics after i.p. administration in mice; type: in vivo, mouse; parameters: Cpd1 concentration (sheet Fig S5a) / Cpd1 concentration (sheet Fig S5b): unit not given here; conditions: for concentration at 10 min / concentration at 30 min / concentration at 60 min / Cmax / half-life / concentration at 5 min: C57BL/6J, mouse, plasma; for concentration at 10 min / concentration at 30 min / concentration at 60 min / concentration at 5 min: intraperitoneal; for Cmax / half-life: ip; for Cpd1 concentration (sheet Fig S5b) / Cpd1 concentration (sheet Fig S5a): i.p., single mice
Description: Cpd1 sodium salt (3 mg/kg and 10 mg/kg) dissolved in normal saline was administered i.p. to WT C57BL/6 J mice (10 week-old). Serial tail bled blood samples (∼20 μL) were collected using heparinized tip at 5, 10, 30, and 60 min after administration. Aliquots (5 μL) of plasma samples obtained from each blood were treated with 50 μL of acetonitrile and organic layer were injected onto LC–MS/MS system (Waters Corp., Milford, MA, USA). The pharmacokinetic parameters included maximum concentration (Cmax), elimination half-life (T½).

[2] = tested on: WT mice; test: Muscle force in vivo, grip force test (4-grips test), WT mice; parameters: species or system mouse; conditions: for grip force (sheet Fig S6b): single mice; for grip force normalized by body weight: 8-times injection of 1 mg/kg at 10 min intervals, 1 mg/kg
[3] = tested on: R2509C mice; test: Muscle force in vivo, grip force test (4-grips test), R2509C mice; parameters: species or system mouse; conditions: for grip force (sheet Fig S6c): single mice
Description: Muscle force was measured in vivo by grip-force test. […] The force was measured before and 10 and 60 min after i.p. injection of saline or Cpd1 (10 mg/kg). Mice (8- to 12-week old) were gently held by the tails and allowed them to grasp the horizontally positioned metal bar of the Grip Strength Meter (MK308M, Muromachi Kikai, Tokyo, Japan) with their forelimbs and hindlimbs (4-grips test). Each mouse performed four trials for force measurement at every time point. The highest force value applied to the metal bar was recorded and normalized by body weight.

[4] = tested on: R163C mice; type: in vivo, mouse
[5] = Pharmacokinetics after i.p. administration in mice; type: in vivo, mouse; conditions: 8-times injection of 1 mg/kg at 10 min intervals
[6] = Thermodynamic solubility in solutions for injection
[7] = Pre (before administration), Cpd1 group

## CCCCCCCCn1cc(C(=O)O)c(=O)c2cc3c(cc21)OCO3 [Cpd1, 6,7-(methylenedioxy)-1-octyl-4-quinolone-3-carboxylic acid]
[1]; 3 mg/kg i.p., 10 min
  plasma concentration: 750 ng/mL and 510 ng/mL and 710 ng/mL and 660 ng/mL and 760 ng/mL
[1]; 3 mg/kg i.p., 30 min
  plasma concentration: 150 ng/mL and 120 ng/mL and 140 ng/mL and 190 ng/mL
[1]; 10 mg/kg i.p., 10 min
  plasma concentration: 2950 ng/mL and 3200 ng/mL and 1730 ng/mL and 2280 ng/mL and 1660 ng/mL
[1]; 10 mg/kg i.p., 60 min
  plasma concentration: 50 ng/mL and 60 ng/mL
[1]; 3 mg/kg, 3 mg/kg i.p., 10 min
  concentration at 10 min: 440 ng/mL
[1]; 3 mg/kg, 3 mg/kg i.p., 30 min
  concentration at 30 min: 110 ng/mL
[1]; 10 mg/kg, 10 mg/kg i.p., 10 min
  concentration at 10 min: 3080 ng/mL
[1]; 10 mg/kg, 10 mg/kg i.p., 60 min
  concentration at 60 min: 40 ng/mL
[1]; 3 mg/kg i.p.
  Cmax: 1500 ± 200 ng/mL
[1]; 3 mg/kg i.p., read-out: t1/2
  half-life: 8.4 ± 1.4 min
[1]; 10 mg/kg i.p.
  Cmax: 5400 ± 600 ng/mL
[1]; 10 mg/kg i.p., read-out: t1/2
  half-life: 8.6 ± 1.6 min
[1]; both the 3 mg/kg and 10 mg/kg dose i.p., read-out: t1/2 (plasma half-life)
  half-life: ~8 min
[1]; female mice, 3 mg/kg i.p.
  Cmax: 1600 ± 100 ng/mL
[1]; female mice, 3 mg/kg i.p., read-out: t1/2
  half-life: 8.6 ± 0.8 min
[1]; female mice, 10 mg/kg i.p.
  Cmax: 6000 ± 400 ng/mL
[1]; female mice, 10 mg/kg i.p., read-out: t1/2
  half-life: 9.3 ± 1 min
[1]; female, 8-times injection of 1 mg/kg at 10 min intervals
  Cmax: 150 ± 110 ng/mL
[1]; female, 8-times injection of 1 mg/kg at 10 min intervals, read-out: t1/2
  half-life: 14.8 ± 2.1 min
[1]; male mice, 3 mg/kg i.p.
  Cmax: 1300 ± 400 ng/mL
[1]; male mice, 3 mg/kg i.p., read-out: t1/2
  half-life: 8.3 ± 2.7 min
[1]; male mice, 10 mg/kg i.p.
  Cmax: 5100 ± 1200 ng/mL
[1]; male mice, 10 mg/kg i.p., read-out: t1/2
  half-life: 7.4 ± 2.5 min
[1]; male, 8-times injection of 1 mg/kg at 10 min intervals
  Cmax: 670 ± 110 ng/mL
[1]; male, 8-times injection of 1 mg/kg at 10 min intervals, read-out: t1/2
  half-life: 9.6 ± 2.7 min
[1]; female, 8-times injection of 1 mg/kg at 10 min intervals, 5 min, 1 mg/kg
  plasma concentration: 110 ng/mL and 120 ng/mL
[1]; female, 8-times injection of 1 mg/kg at 10 min intervals, 30 min, 1 mg/kg
  plasma concentration: 30 ng/mL
[1]; female, 8-times injection of 1 mg/kg at 10 min intervals, 60 min, 1 mg/kg
  plasma concentration: 20 ng/mL
[1]; female, 1 mg/kg, 8-times injection of 1 mg/kg at 10 min intervals, 5 min
  concentration at 5 min: 140 ng/mL
[1]; female, 1 mg/kg, 8-times injection of 1 mg/kg at 10 min intervals, 10 min
  concentration at 10 min: 120 ng/mL
[1]; female, 1 mg/kg, 8-times injection of 1 mg/kg at 10 min intervals, 30 min
  concentration at 30 min: 40 ng/mL
[1]; female, 1 mg/kg, 8-times injection of 1 mg/kg at 10 min intervals, 60 min
  concentration at 60 min: 10 ng/mL
[1]; male, 8-times injection of 1 mg/kg at 10 min intervals, 60 min, 1 mg/kg
  plasma concentration: 20 ng/mL
[1]; male, 1 mg/kg, 8-times injection of 1 mg/kg at 10 min intervals, 5 min
  concentration at 5 min: 430 ng/mL
[1]; male, 1 mg/kg, 8-times injection of 1 mg/kg at 10 min intervals, 60 min
  concentration at 60 min: 10 ng/mL
[1]; time 5, dose head 3
  Cpd1 concentration (sheet Fig S5b): 1.2 and 1.12 and 0.98
[1]; time 5, dose head 10
  Cpd1 concentration (sheet Fig S5b): 4.45 and 3.8 and 3.72
[1]; time 10, dose head 3
  Cpd1 concentration (sheet Fig S5a): 0.44 and 0.75 and 0.51
  Cpd1 concentration (sheet Fig S5b): 0.71 and 0.66 and 0.76
[1]; time 10, dose head 10
  Cpd1 concentration (sheet Fig S5a): 1.73 and 2.28 and 1.66
  Cpd1 concentration (sheet Fig S5b): 3.08 and 2.95 and 3.2
[1]; time 30, dose head 3
  Cpd1 concentration (sheet Fig S5a): 0.11 and 0.15 and 0.12
  Cpd1 concentration (sheet Fig S5b): 0.14 and 0.19
[1]; time 30, dose head 10
  Cpd1 concentration (sheet Fig S5b): 0.39 and 0.45 and 0.41
[1]; time 60, dose head 3
  Cpd1 concentration (sheet Fig S5b): 0.03 and 0.02
[1]; time 60, dose head 10
  Cpd1 concentration (sheet Fig S5a): 0.05 and 0.06 and 0.04
  Cpd1 concentration (sheet Fig S5b): 0.04 and 0.05 and 0.06
[2]; 10 min after Cpd1
  grip force (sheet Fig S6b): 10.7 and 8.11 and 9.35 and 11.39
[2]; 60 min after Cpd1
  grip force (sheet Fig S6b): 11.25 and 11.53 and 12.05 and 13.94
[2]; [7]
  grip force (sheet Fig S6b): 12.3 and 12.63 and 13.75 and 13.44
[2]; WT mice, 10 min after 10 mg/kg
  reduction of muscle strength: 15%
[2]; WT mice, 60 min after 10 mg/kg
  recovery of muscle strength deficit: almost completely recovered
[2]; female WT, 10 min
  grip force normalized by body weight: 6.55 g/g BW and 8.77 g/g BW and 8.32 g/g BW
[2]; female WT, 30 min
  grip force normalized by body weight: 6.59 g/g BW and 8.18 g/g BW and 9 g/g BW
[2]; female WT, 60 min
  grip force normalized by body weight: 8.64 g/g BW and 8.82 g/g BW and 9.45 g/g BW
[2]; female WT, 120 min
  grip force normalized by body weight: 10.05 g/g BW and 9.64 g/g BW and 12.23 g/g BW
[2]; female WT, Pre
  grip force normalized by body weight: 9.86 g/g BW and 10.18 g/g BW and 11.36 g/g BW
[2]; male WT, 10 min
  grip force normalized by body weight: 6.56 g/g BW and 4.67 g/g BW and 5.04 g/g BW
[2]; male WT, 30 min
  grip force normalized by body weight: 7.19 g/g BW and 7.63 g/g BW and 7.37 g/g BW
[2]; male WT, 60 min
  grip force normalized by body weight: 8.81 g/g BW and 9.89 g/g BW and 10.81 g/g BW
[2]; male WT, 120 min
  grip force normalized by body weight: 9.48 g/g BW and 8.74 g/g BW and 9.44 g/g BW
[2]; male WT, Pre
  grip force normalized by body weight: 9.33 g/g BW and 9.22 g/g BW and 8.63 g/g BW
[3]; 10 min after Cpd1
  grip force (sheet Fig S6c): 9.25 and 10 and 6.39 and 8.47 and 6.45 and 7.53
[3]; 60 min after Cpd1
  grip force (sheet Fig S6c): 10.04 and 12.86 and 9.79 and 9.69 and 9.84 and 10.9
[3]; [7]
  grip force (sheet Fig S6c): 10.64 and 13.19 and 10.54 and 8.58 and 8.65 and 10.63
[3]; R2509C mice, after administration of Cpd1
  muscle weakness in grip strength test: muscle weakness was also observed in 10 min but recovered within 60 min
[4]; 2.5 mg/kg, at 11 minutes
  survival curve status code of one mouse after isoflurane anesthesia (code not defined): 1
[4]; 2.5 mg/kg, at 12 minutes
  survival curve status code of one mouse after isoflurane anesthesia (code not defined): 1
[4]; 2.5 mg/kg, at 13 minutes
  survival curve status code of one mouse after isoflurane anesthesia (code not defined): 1
[4]; 2.5 mg/kg, at 14 minutes
  survival curve status code of one mouse after isoflurane anesthesia (code not defined): 1
[4]; 5 mg/kg, at 12 minutes
  survival curve status code of one mouse after isoflurane anesthesia (code not defined): 1
[4]; 5 mg/kg, at 15 minutes
  survival curve status code of one mouse after isoflurane anesthesia (code not defined): 1
[4]; 5 mg/kg, at 30 minutes
  survival curve status code of one mouse after isoflurane anesthesia (code not defined): 0
[4]; 10 mg/kg 15 min after induction of isoflurane anesthesia
  rescue effect on [Ca2+]i during MH crisis: rapidly decreased [Ca^2+]i to the levels measured in WT muscle
[4]; 10 mg/kg, at 30 minutes
  survival curve status code of one mouse after isoflurane anesthesia (code not defined): 0
[4]; pretreatment at doses of 5 and 10 mg/kg
  effect on MH episode and death under isoflurane: effectively prevented the MH episode and death
[5]; female, 10 min
  plasma concentration: 70 ng/mL and 90 ng/mL
[5]; male, 5 min
  plasma concentration: 610 ng/mL and 360 ng/mL
[6]; free acid
  water solubility: virtually water insoluble
[6]; normal saline
  solubility in normal saline compared to dantrolene: 34 fold
[6]; normal saline (0.9% NaCl), 25 °C, saline or isotonic, thermodynamic from solid
  solubility at 48 h: 849 ± 58 µg/mL (≈ 2460 µM)
